Source: patent US8575193B2, “N-substituted tetrahydroisoquinoline/isoindoline hydroxamic acid compounds” (4SC AG, priority 2008, dated 2013)
Counter-ions that a name gives are not always drawn.

Tests used:
rHDAC3 = target: T1, rHDAC3 (Homo sapiens, UniProt O15379); assay: rHDAC3 enzymatic assay (recombinant FLAG-HDAC3); format: biochemical; details: FLAG-HDAC3 from insect cells; 6 μM Ac-NH-GGK(Ac)-AMC, 2 h at 30° C.; read-out: rHDAC3 [pIC50] (converted)
T1 construct: FLAG; made in house; host or cells: baculovirus-infected Sf21 insect cells
Excerpt: (§1) Human HDAC1 and HDAC6 fused with the FLAG epitope are stably expressed in HEK293 cells while human HDAC3 and HDAC8 fused with the FLAG epitope are overexpressed in baculo-virus infected insect (Sf21) cells. To ensure stability of FLAG-HDAC3 the SMRT protein is co-expressed in the corresponding insect cells. […] FLAG-HDAC3 and FLAG-HDAC8 are also purified by M2-agarose affinity chromatography after mass cultivation of the insect cells and cell lysis.
(§2) The HDAC enzyme activity assay is done as described by Wegener et al. (Chem. & Biol. 10, 61-68, 2003). Briefly 40 μl of a 1:100 dilution (=0.4 μl) nuclear HeLa extract (mixture of class I and II HDACs), 29 μl enzyme buffer (15 mM Tris HCl pH 8.1, 0.25 mM EDTA, 250 mM NaCl, 10% v:v glycerol) and 1 μl test compound are added to a well of a 96 well microtiter plate and reaction started by addition of 3 μl substrate (Ac-NH-GGK(Ac)-AMC; final concentration 25 μM and final volume […]). […] After incubation at room temperature for further 40 min, fluorescence is measured using a Wallac Victor 1420 multilabel counter (Ex 355 nm, Em 460 nm) for quantification of AMC (7-amino-4-methylcoumarin) generated by trypsine cleavage of the deacetylated peptide. […] The corresponding pIC50 values of the compounds for HDAC inhibitory activity are determined from the concentration-effect curves by means of non-linear regression (Graphpad Prism software).
(§3) The HDAC1, HDAC3 and HDAC6 enzymatic assays are done with slight modifications with recombinant FLAG-HDAC1 and FLAG-HDAC6 proteins isolated from HEK293 cell lysates or recombinant FLAG-HDAC3 isolated from insect cells, respectively. The HDAC8 enzymatic assay using recombinant FLAG-HDAC8 isolated from insect cells is done with a different substrate. About 4.5 ng/well FLAG-HDAC1 and 3.1 ng/well FLAG-HDAC6 (dependent on batches and specific activity) are incubated with 6 μM or 10 μM Ac-NH-GGK(Ac)-AMC substrate, respectively, for 3 h at 30° C. About 1.7 ng/well FLAG-HDAC3 is incubated with 6 μM Ac-NH-GGK(Ac)-AMC substrate for 2 h at 30° C., while approximately 130 ng/well FLAG-HDAC8 is incubated with 50 μM Ac-RHK(Ac)K(Ac)-AMC substrate for 3 h at 30° C. Termination of the reaction and all further steps are done as described for HeLa cell nuclear extracts as a source for HDAC enzymatic activity. The corresponding pIC50 values of the compounds for HDAC1, HDAC3, HDAC6 and HDAC8 inhibitory activity are determined from the concentration-effect curves by means of non-linear regression.

rHDAC1 = target: T2, rHDAC1 (Homo sapiens, UniProt Q13547); assay: rHDAC1 enzymatic assay (recombinant FLAG-HDAC1); format: biochemical; details: FLAG-HDAC1 from HEK293; 6 μM Ac-NH-GGK(Ac)-AMC, 3 h at 30° C.; read-out: rHDAC1 [pIC50] (converted)
T2 construct: FLAG; made in house
Excerpt: as §1, §2, §3

rHDAC8 = target: T3, rHDAC8 (Homo sapiens, UniProt Q9BY41); assay: rHDAC8 enzymatic assay (recombinant FLAG-HDAC8); format: biochemical; details: FLAG-HDAC8 from insect cells; 50 μM Ac-RHK(Ac)K(Ac)-AMC, 3 h at 30° C.; read-out: rHDAC8 [pIC50] (converted)
T3 construct: FLAG; made in house; host or cells: baculovirus-infected Sf21 insect cells
T3 sequence (Q9BY41 1-377): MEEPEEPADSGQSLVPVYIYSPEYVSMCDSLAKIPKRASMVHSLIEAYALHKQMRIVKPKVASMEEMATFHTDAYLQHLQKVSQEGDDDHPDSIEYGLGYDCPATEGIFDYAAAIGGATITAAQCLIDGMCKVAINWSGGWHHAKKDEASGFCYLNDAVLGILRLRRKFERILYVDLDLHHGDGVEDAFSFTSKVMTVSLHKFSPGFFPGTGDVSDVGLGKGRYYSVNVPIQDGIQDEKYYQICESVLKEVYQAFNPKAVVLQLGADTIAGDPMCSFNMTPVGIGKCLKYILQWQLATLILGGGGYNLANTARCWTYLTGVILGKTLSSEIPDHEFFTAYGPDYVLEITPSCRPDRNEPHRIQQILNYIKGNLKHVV
Excerpt: as §1, §2, §3

[1] = Cellular cytotoxicity assay (Alamar Blue/Resazurin), HeLa; format: cell-based; details: human, HeLa cells, 72 hours incubation, Resazurin, read-out: HeLa Cytotoxicity [pIC50] (converted)
Procedure: (§4) The anti-proliferative activity of the compounds as described herein, is evaluated with various solid and hematological cancer cell lines using the Alamar Blue (Resazurin) cell viability assay (O'Brien et al, Eur J Biochem 267, 5421-5426, 2000). Resazurin is reduced to the fluorescent resorufin by cellular dehydrogenase activity, correlating with viable, proliferating cells. Test compounds are dissolved as 20 mM solutions in dimethylsulfoxide (DMSO) and subsequently diluted in semi-logarithmic steps. The cancer cell lines are seeded into 96 well flat bottom plates at respective cell densities in a volume of 200 μl per well to allow continuous proliferation during the experiment. 24 hours after seeding 1 μl each of the compound dilutions is added into each well of the 96 well plate. Wells containing untreated control cells are filled with 200 μl DMEM medium containing 0.5% v:v DMSO. The cells are then incubated with the substances for 72 hours at 37° C. in a humidified atmosphere containing 5% carbon dioxide. To determine the viability of the cells, 20 μl of a Resazurin solution (Sigma; 90 mg/l) are added. After 4 hours incubation at 37° C. the fluorescence is measured at an extinction of 544 nm and an emission of 590 nm. For the calculation of the cell viability the emission value from untreated cells is set as 100% viability and the emission rates of treated cells are set in relation to the values of untreated cells. Viabilities are expressed as % values. The corresponding pIC50 values of the compounds for cytotoxic activity are determined from the concentration-effect curves by means of non-linear regression.

[2] = Cellular cytotoxicity assay (Alamar Blue/Resazurin), RKOp21; format: cell-based; details: human, RKOp21 cells; RKOp21, 72 hours incubation, Resazurin; read-out: RKOp21 Cytotoxicity [pIC50] (converted)
Procedure: as §4

T1 sequence (O15379 whole entry): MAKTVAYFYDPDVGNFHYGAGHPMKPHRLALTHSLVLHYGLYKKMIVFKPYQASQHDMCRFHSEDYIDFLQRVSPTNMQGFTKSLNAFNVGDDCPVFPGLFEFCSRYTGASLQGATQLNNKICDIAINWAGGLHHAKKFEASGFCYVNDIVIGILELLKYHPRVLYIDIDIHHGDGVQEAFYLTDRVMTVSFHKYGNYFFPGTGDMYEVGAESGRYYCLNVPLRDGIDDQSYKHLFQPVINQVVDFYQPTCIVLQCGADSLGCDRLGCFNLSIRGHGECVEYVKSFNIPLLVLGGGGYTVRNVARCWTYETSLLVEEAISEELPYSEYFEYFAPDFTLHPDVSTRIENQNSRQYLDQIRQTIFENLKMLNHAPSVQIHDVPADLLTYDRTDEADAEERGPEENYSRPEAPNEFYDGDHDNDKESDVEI
T1 sequence (Q9Y618 whole entry partner): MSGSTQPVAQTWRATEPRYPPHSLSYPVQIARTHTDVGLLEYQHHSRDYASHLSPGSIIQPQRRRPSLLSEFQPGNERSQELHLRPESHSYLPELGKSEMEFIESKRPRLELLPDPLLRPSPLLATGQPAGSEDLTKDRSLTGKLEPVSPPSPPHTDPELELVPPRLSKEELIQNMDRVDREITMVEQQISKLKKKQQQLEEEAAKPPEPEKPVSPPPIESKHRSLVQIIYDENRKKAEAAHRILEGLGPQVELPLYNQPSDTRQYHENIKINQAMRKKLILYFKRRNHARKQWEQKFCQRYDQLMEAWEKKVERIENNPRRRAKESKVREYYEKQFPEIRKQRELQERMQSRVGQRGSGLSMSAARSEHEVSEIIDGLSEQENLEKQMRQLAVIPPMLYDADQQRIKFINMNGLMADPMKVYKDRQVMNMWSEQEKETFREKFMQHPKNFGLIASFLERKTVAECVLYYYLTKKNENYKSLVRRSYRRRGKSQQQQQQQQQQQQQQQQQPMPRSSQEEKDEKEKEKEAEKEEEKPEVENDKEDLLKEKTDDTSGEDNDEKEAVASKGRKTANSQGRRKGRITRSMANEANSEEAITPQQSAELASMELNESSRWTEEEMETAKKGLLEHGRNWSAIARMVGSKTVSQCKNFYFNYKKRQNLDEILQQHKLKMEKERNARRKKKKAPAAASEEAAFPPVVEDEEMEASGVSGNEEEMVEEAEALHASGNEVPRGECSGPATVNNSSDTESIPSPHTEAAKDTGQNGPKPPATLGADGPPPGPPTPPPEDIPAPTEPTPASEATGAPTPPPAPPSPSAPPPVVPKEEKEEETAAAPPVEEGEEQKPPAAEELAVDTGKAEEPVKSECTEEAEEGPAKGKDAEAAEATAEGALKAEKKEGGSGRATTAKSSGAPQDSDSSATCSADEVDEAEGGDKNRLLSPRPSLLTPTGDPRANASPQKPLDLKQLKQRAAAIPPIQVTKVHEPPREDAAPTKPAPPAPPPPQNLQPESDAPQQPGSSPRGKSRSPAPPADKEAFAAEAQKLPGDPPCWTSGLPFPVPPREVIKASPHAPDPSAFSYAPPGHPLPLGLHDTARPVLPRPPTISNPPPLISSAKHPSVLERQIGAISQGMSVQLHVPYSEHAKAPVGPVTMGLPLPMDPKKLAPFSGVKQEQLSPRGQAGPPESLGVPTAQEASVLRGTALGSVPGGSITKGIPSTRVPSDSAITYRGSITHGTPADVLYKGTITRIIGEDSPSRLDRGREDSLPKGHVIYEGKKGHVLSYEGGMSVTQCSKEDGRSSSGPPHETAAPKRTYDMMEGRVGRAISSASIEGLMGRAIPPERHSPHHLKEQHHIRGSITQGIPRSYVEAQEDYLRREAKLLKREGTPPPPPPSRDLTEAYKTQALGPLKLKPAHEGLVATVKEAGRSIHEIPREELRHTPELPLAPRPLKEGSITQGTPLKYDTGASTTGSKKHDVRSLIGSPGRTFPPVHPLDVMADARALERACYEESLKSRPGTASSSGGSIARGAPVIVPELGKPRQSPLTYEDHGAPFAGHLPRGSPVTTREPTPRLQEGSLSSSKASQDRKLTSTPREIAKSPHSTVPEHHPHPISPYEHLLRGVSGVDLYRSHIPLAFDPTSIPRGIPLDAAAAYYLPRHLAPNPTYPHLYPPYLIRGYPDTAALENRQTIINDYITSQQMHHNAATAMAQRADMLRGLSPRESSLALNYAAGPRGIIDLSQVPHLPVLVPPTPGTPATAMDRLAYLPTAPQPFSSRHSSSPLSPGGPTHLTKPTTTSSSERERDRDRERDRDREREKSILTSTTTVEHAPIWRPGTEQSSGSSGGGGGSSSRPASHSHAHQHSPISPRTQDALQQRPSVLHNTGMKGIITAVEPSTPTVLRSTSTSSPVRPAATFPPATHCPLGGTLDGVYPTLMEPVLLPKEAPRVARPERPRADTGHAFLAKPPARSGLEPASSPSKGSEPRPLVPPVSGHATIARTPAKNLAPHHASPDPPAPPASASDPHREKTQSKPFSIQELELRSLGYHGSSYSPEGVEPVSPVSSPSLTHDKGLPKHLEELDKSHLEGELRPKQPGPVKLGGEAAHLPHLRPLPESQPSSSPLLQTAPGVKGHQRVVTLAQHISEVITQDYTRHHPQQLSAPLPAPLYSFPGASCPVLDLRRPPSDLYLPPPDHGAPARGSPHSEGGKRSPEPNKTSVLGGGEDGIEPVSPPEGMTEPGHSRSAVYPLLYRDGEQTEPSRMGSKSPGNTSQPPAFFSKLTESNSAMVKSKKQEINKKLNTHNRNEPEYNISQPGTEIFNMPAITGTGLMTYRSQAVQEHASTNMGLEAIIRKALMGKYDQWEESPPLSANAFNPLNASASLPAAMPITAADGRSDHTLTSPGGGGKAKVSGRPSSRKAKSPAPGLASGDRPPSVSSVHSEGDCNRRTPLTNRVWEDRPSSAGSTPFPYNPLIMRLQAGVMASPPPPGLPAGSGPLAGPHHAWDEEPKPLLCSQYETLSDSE
T2 sequence (Q13547 whole entry): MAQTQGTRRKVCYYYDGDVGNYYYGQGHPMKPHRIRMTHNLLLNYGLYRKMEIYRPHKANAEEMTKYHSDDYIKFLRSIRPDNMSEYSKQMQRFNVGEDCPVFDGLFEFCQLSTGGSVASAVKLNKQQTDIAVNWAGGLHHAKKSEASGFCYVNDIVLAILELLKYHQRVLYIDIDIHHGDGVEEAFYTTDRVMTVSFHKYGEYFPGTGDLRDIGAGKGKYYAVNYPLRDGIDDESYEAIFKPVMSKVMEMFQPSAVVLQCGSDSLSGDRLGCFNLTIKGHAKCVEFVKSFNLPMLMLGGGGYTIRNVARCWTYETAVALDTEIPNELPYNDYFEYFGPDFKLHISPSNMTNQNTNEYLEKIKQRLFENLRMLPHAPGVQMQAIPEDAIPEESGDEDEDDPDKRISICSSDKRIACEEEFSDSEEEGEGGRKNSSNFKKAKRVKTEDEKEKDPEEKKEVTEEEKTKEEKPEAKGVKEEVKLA

Row | Structure (SMILES) | IC50 (rHDAC3) [µM] | IC50 (rHDAC1) [µM] | IC50 (rHDAC8) [µM] | IC50 at 72 h [1] [µM] | IC50 at 72 h [2] [µM]
1 | O=C(NO)c1ccc2c(c1)CN(C(=O)NCCc1ccccc1)CC2 [Example 22, N7-Hydroxy-N2-(2-phenylethyl)-3,4-dihydroisoquinoline-2,7(1H)-dicarboxamide] | 1 to 10 | 0.1 to 10 | 0.01 to 1 | 1 to 100 | –
2 | CN(C)CCCC(=O)N1CCc2cc(C(=O)NO)ccc2C1 [Example 9, 2-[4-(Dimethylamino)butanoyl]-N-hydroxy-1,2,3,4-tetrahydroisoquinoline-6-carboxamide hydrochloride] | 10 to 100 | 0.1 to 10 | 1 to 10 | 1 to 100 | > 100
3 | O=C(NO)c1ccc2c(c1)CCN(C(=O)CCc1cccnc1)C2 [Example 7, N-Hydroxy-2-(3-pyridin-3-ylpropanoyl)-1,2,3,4-tetrahydroisoquinoline-6-carboxamide hydrochloride] | 10 to 100 | 10 to 100 | 1 to 10 | > 100 | –
4 | CC(=O)N1CCc2cc(C(=O)NO)ccc2C1 [Example 12, 2-Acetyl-N-hydroxy-1,2,3,4-tetrahydroisoquinoline-6-carboxamide] | 10 to 100 | 10 to 100 | 1 to 10 | > 100 | –
5 | O=C(NO)c1ccc2c(c1)CN(C(=O)Cc1ccccn1)CC2 [Example 21, N-Hydroxy-2-(pyridin-2-ylacetyl)-1,2,3,4-tetrahydroisoquinoline-7-carboxamide hydrochloride] | 10 to 100 | 0.1 to 10 | 0.01 to 1 | 1 to 100 | –
6 | O=C(NO)c1ccc2c(c1)CCN(C(=O)Cc1c[nH]c3ccccc13)C2 [Example 1, N-Hydroxy-2-(indol-3-ylacetyl)-1,2,3,4-tetrahydroisoquinoline-6-carboxamide hydrochloride] | 1 to 10 | 0.1 to 10 | 1 to 10 | 1 to 100 | 1 to 100
7 | Cc1ccc(C(=O)N2CCc3ccc(C(=O)NO)cc3C2)cc1 [Example 23, N-Hydroxy-2-(4-methylbenzoyl)-1,2,3,4-tetrahydroisoquinoline-7-carboxamide] | 10 to 100 | 0.1 to 10 | 0.01 to 1 | 1 to 100 | –
8 | COCCOCC(=O)N1CCc2cc(C(=O)NO)ccc2C1 [Example 11, N-Hydroxy-2-[(2-methoxyethoxy)acetyl]-1,2,3,4-tetrahydroisoquinoline-6-carboxamide] | 10 to 100 | 10 to 100 | 1 to 10 | > 100 | –
9 | CC#CC(=O)N1CCc2ccc(C(=O)NO)cc2C1 [Example 17, 2-But-2-ynoyl-N-hydroxy-1,2,3,4-tetrahydroisoquinoline-7-carboxamide] | 10 to 100 | 0.1 to 10 | 0.01 to 1 | 1 to 100 | –
